Legend:
[1] = target: T1, Protein deacetylase HDAC6 (Homo sapiens, UniProt Q9UBN7)
T1 sequence (Q9UBN7 whole entry): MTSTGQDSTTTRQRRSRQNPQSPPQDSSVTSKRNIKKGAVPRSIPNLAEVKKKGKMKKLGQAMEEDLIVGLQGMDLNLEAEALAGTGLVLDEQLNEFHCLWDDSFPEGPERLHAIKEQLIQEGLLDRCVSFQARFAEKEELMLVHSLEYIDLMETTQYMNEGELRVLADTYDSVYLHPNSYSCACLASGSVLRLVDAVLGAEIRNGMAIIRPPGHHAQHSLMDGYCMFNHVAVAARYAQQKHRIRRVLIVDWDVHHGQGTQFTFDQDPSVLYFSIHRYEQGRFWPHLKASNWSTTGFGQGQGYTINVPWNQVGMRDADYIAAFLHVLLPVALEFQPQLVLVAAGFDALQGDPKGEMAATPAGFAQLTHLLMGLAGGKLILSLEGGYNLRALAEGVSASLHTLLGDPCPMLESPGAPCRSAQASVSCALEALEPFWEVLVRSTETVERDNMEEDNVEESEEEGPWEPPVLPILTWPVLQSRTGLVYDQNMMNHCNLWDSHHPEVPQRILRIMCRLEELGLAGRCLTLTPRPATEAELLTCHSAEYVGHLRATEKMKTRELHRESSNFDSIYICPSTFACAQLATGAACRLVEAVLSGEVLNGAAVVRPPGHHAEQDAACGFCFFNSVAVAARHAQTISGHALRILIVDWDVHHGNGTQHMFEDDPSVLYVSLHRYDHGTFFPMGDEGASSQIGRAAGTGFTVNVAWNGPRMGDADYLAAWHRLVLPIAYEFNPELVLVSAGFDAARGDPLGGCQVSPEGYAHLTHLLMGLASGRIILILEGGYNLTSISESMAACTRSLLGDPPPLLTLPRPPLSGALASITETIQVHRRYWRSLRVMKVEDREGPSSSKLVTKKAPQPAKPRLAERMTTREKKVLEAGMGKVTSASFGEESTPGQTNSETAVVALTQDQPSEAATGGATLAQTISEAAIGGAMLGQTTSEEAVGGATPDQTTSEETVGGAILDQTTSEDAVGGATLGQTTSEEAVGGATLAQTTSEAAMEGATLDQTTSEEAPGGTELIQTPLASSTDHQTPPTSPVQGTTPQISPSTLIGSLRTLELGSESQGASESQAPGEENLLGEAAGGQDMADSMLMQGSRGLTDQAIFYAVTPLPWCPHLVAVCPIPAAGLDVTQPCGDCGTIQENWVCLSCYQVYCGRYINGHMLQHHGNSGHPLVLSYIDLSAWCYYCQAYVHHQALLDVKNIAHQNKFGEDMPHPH

[2] = target: Ubiquitin carboxyl-terminal hydrolase isozyme L1 (Homo sapiens) (UniProt P09936); assay: Inhibition of UCH-L1 (unknown origin) at 2.5 uM
Chain of Ubiquitin carboxyl-terminal hydrolase isozyme L1 (Homo sapiens) (P09936 whole entry, looked up): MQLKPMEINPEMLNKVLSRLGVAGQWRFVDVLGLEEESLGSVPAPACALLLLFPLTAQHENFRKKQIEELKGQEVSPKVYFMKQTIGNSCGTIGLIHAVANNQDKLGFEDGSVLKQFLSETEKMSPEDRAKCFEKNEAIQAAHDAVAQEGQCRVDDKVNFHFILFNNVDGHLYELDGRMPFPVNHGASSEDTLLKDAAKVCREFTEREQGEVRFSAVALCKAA

[3] = target: T2, Ubiquitin carboxyl-terminal hydrolase 5 (Homo sapiens) (UniProt P45974); assay: Inhibition of USP5 (unknown origin) at 2.5 uM
T2 sequence (whole entry): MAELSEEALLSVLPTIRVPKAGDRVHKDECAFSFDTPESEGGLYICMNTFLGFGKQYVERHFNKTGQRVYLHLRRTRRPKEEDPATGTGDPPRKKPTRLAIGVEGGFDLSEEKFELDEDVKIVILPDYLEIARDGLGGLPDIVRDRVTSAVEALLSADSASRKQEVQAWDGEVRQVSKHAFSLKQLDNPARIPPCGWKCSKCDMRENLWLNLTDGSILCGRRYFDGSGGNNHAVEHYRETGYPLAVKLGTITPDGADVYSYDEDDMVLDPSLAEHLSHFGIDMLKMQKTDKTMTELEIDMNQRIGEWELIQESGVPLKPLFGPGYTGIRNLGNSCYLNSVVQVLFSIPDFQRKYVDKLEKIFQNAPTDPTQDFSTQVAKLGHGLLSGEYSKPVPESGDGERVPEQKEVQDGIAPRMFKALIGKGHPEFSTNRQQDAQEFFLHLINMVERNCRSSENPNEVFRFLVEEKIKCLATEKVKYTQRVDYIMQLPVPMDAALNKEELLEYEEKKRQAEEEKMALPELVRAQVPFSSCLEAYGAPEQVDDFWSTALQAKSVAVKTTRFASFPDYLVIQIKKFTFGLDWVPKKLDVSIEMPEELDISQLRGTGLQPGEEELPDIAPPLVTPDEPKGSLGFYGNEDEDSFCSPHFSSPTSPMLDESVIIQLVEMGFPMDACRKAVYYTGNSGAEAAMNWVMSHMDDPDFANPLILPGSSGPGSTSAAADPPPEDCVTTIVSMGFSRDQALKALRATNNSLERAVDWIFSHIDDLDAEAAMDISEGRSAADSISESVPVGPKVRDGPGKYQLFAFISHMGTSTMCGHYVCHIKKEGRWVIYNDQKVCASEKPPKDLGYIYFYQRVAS

[4] = target: Ubiquitin carboxyl-terminal hydrolase 9X (Homo sapiens) (UniProt Q93008); assay: Inhibition of USP9X (unknown origin) at 2.5 uM
Chain of Ubiquitin carboxyl-terminal hydrolase 9X (Homo sapiens) (Q93008 whole entry): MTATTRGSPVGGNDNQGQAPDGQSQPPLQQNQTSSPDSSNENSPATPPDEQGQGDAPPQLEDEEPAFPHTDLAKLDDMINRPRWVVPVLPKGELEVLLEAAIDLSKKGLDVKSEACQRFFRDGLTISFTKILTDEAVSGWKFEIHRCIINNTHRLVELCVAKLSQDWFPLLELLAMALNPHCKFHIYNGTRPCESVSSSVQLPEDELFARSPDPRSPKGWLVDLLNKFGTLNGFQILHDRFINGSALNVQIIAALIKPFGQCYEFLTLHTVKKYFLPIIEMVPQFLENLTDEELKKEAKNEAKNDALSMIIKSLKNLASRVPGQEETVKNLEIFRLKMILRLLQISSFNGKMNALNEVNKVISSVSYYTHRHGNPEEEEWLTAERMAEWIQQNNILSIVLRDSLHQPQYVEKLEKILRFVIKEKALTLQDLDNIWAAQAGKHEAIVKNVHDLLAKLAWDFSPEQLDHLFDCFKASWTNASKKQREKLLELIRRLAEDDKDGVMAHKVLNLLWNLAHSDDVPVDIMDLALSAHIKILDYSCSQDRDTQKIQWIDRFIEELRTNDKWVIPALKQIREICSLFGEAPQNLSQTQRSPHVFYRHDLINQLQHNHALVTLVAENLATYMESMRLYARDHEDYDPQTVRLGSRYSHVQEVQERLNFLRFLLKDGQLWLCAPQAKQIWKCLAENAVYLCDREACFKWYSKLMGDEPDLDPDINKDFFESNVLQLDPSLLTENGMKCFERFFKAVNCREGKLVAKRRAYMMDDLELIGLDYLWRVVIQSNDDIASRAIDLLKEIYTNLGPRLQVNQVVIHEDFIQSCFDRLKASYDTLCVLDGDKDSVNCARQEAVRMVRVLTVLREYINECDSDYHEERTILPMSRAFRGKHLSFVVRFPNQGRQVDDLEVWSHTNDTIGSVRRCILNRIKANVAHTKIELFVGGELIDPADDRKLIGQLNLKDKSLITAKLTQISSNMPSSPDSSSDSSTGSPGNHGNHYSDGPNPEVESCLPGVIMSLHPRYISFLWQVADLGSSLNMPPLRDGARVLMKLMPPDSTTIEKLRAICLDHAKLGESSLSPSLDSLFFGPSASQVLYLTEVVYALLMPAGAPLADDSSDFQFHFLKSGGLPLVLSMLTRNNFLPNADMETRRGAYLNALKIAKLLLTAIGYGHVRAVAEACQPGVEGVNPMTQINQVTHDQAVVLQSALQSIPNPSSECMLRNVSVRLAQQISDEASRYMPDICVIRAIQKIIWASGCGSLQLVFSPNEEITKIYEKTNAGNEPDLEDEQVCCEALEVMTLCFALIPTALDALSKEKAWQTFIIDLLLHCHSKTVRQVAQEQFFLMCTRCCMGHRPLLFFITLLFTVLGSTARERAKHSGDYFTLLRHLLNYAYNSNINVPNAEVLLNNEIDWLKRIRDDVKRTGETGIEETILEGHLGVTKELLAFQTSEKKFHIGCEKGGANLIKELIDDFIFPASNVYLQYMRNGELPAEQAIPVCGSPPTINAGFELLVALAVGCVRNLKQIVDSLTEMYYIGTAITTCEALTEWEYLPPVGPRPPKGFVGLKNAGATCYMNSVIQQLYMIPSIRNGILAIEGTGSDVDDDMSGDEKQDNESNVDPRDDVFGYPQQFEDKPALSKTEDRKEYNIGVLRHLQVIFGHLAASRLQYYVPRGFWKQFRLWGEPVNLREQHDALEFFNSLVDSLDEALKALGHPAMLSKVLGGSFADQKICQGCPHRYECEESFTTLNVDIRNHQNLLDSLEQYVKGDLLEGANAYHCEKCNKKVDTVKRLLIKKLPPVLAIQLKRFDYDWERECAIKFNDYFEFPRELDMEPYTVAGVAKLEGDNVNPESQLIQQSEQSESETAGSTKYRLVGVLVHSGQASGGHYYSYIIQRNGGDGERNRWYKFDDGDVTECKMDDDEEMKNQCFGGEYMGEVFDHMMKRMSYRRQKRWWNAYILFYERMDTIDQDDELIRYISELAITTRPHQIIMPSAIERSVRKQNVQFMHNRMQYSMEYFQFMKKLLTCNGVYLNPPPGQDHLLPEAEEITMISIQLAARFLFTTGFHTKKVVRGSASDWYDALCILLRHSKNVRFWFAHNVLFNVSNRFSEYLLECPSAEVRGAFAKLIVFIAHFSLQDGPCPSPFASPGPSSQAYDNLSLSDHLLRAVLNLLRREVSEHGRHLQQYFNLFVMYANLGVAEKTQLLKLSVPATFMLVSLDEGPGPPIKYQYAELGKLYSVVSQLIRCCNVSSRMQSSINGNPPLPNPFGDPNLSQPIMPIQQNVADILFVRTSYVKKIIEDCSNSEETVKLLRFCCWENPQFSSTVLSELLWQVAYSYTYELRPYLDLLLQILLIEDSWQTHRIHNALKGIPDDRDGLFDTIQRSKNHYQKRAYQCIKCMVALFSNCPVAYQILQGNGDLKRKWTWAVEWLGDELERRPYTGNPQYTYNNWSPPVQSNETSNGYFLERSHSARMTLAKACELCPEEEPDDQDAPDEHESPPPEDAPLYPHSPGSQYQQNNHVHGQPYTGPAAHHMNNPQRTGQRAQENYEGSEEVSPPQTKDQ

[5] = Metabolic stability of the compound in CD-1 mouse liver microsomes assessed as parent compound remaining at 1 uM measured after 60 mins in presence of NADPH regenerating system by LC/MS analysis; type: ADME, Microsome; conditions: read-out: Stability
[6] = Metabolic stability of the compound in human liver microsomes assessed as parent compound remaining at 1 uM measured for 60 mins in presence of NADPH regenerating system by LC/MS analysis; type: ADME, Microsome; conditions: read-out: Stability
[7] = target: T3, Ubiquitin carboxyl-terminal hydrolase 5 (Homo sapiens, UniProt P45974); assay: Inhibition of USP5 (unknown origin)
T3 sequence (P45974 whole entry): T2 sequence (whole entry)

[8] = target: Ubiquitin carboxyl-terminal hydrolase 7 (Homo sapiens, UniProt Q93009); assay: Inhibition of USP7 (unknown origin)
Chain of Ubiquitin carboxyl-terminal hydrolase 7 (Q93009 whole entry): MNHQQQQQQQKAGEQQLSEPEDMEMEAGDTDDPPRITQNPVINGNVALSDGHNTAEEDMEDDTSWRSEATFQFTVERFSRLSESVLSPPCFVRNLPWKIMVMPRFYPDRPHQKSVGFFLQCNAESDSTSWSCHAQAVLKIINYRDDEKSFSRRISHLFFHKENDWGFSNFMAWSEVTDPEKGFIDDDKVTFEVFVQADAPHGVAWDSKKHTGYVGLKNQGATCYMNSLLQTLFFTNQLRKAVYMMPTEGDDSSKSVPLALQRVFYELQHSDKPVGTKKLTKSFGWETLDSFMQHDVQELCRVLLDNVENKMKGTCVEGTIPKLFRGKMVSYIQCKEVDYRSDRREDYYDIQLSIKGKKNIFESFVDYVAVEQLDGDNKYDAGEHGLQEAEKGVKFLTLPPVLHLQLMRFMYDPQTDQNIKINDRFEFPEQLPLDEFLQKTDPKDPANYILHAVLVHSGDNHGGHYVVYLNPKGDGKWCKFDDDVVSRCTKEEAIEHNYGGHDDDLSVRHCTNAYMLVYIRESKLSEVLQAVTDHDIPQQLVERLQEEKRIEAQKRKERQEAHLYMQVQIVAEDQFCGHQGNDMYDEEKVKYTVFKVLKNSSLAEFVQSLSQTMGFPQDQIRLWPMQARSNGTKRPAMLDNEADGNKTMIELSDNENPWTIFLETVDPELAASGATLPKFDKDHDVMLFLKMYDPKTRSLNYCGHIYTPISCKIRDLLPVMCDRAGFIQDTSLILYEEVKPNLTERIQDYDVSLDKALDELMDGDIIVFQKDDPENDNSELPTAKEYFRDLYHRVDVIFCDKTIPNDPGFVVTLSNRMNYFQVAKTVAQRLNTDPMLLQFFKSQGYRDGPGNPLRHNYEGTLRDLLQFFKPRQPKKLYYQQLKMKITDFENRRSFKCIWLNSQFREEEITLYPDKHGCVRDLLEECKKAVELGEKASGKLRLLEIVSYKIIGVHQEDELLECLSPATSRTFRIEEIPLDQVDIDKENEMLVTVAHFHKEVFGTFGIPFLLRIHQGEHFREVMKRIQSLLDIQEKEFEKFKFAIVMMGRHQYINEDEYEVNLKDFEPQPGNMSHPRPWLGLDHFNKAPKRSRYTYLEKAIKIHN

[9] = target: T4, Ubiquitin carboxyl-terminal hydrolase 4 (Homo sapiens, UniProt Q13107); assay: Inhibition of USP4 (unknown origin)
T4 sequence (Q13107 whole entry): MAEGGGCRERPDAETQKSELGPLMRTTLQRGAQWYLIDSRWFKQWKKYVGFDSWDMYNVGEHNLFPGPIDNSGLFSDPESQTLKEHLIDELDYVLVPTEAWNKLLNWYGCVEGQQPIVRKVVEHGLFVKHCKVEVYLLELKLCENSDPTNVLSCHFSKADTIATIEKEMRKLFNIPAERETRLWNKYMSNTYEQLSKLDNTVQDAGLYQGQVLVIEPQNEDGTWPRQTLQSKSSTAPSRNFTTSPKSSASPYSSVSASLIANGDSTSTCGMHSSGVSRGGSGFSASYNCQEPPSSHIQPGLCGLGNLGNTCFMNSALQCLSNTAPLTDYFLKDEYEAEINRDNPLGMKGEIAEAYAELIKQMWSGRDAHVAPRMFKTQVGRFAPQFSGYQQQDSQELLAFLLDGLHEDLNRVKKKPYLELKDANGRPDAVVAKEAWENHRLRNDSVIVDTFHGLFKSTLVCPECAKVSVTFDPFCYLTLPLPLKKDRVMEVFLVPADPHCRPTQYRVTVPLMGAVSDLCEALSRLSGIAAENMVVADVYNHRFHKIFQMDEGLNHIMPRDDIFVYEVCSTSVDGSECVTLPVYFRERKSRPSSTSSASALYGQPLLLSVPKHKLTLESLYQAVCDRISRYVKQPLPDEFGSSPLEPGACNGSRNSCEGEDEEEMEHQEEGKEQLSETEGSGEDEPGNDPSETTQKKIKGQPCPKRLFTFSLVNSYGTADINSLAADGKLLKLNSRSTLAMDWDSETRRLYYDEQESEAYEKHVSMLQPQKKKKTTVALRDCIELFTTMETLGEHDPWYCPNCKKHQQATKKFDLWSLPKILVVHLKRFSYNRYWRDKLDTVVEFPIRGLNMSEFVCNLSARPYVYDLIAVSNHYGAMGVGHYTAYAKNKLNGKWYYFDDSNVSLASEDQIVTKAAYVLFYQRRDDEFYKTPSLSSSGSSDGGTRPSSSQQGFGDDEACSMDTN

[10] = target: T5, Ubiquitin carboxyl-terminal hydrolase 2 (Homo sapiens, UniProt O75604); assay: Inhibition of USP2 (unknown origin)
T5 sequence (O75604 whole entry): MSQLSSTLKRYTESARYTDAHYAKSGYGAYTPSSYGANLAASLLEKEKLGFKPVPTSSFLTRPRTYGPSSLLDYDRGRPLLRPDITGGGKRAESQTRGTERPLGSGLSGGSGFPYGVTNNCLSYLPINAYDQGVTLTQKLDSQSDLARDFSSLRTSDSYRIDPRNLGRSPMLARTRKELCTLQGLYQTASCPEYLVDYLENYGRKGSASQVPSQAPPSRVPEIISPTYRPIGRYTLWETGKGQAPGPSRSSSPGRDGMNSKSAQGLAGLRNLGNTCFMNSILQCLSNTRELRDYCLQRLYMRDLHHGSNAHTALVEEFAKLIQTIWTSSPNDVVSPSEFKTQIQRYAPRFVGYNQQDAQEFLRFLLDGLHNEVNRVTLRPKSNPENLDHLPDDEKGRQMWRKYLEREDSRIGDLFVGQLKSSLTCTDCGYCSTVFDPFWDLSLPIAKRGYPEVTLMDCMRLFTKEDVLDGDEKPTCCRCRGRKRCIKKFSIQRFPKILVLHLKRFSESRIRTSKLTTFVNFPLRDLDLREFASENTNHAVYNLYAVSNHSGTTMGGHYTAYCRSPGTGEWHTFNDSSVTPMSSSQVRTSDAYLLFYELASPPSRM

[11] = target: T6, Ubiquitin carboxyl-terminal hydrolase 8 (Homo sapiens, UniProt P40818); assay: Inhibition of USP8 (unknown origin)
T6 sequence (P40818 whole entry): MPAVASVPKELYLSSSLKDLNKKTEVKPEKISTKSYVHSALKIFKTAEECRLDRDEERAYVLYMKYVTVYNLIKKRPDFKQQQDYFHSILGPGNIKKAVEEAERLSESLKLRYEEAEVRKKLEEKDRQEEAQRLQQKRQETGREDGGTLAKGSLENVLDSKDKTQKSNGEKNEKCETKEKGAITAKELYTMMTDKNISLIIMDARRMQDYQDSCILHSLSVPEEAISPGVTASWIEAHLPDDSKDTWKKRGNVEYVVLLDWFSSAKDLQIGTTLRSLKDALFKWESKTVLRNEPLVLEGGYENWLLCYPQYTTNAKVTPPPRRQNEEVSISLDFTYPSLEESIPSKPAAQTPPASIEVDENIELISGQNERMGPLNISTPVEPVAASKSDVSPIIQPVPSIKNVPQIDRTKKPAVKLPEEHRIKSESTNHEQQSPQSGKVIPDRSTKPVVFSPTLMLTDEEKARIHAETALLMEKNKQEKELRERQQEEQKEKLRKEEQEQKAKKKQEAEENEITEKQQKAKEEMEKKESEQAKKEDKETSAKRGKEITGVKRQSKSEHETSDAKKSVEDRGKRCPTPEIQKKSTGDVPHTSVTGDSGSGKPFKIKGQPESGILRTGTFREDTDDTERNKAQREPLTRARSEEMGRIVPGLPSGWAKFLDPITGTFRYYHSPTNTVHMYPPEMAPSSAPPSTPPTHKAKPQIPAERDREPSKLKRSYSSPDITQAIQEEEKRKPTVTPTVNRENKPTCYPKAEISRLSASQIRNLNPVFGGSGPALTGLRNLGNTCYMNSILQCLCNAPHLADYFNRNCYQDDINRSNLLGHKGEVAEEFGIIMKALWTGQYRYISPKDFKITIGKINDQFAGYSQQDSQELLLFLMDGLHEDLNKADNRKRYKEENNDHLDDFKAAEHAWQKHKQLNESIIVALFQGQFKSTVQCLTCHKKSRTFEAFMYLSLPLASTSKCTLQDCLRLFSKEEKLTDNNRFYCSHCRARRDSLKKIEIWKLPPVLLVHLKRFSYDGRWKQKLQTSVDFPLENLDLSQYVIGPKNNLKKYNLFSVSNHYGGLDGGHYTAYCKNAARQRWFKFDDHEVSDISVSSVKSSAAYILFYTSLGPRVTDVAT

| SMILES | Kd [1] [µM] | further results |
| --- | --- | --- |
| O=C(O)CNC(=O)c1ccc(S(=O)(=O)N2CCC(c3ccccc3)CC2)cc1Cl | 150 | – |
| CCC[C@H](NC(=O)/C(C#N)=C/c1cccc(Br)n1)c1ccccc1 | – | inhibition [2]: 30%; inhibition [3]: 50%; inhibition [4]: 45% |
| O=C(O)CNC(=O)c1cccc(S(=O)(=O)N2CCC(c3ccccc3)CC2)c1 | > 440 | – |
| CN1CCN(C2CCN(S(=O)(=O)c3ccc(C(=O)NCC(=O)O)cc3)CC2)CC1 | 370 | – |
| O=C(O)CNC(=O)c1ccc(S(=O)(=O)N2CC=C(c3ccccc3)CC2)cc1 | 340 | – |
| Cc1cc(S(=O)(=O)N2CCC(c3ccccc3)CC2)ccc1C(=O)NCC(=O)O | 160 | – |
| O=C(O)CNC(=O)c1ccc(S(=O)(=O)N2CCC(N3CCOCC3)CC2)cc1 | > 1000 | – |
| O=C(O)CNC(=O)c1ccc(S(=O)(=O)N2CCC(N3CCCC3)CC2)cc1 | 520 | – |
| O=C(O)CNC(=O)c1ccc(S(=O)(=O)N2CCC(c3ccc(Cl)cc3)CC2)cn1 | – | remaining at 1 h, 1 µM [5]: > 90%; remaining at 1 h, 1 µM [6]: > 90% |
| O=C(O)CNC(=O)c1ccc(S(=O)(=O)N2CCC(c3ccccc3)C2)cc1 (stereo not drawn) | > 1000 | – |
| O=C(O)CNC(=O)c1ccc(S(=O)(=O)N2CC(c3ccccc3)C2)cc1 | > 1000 | – |
| CN1CCC(NS(=O)(=O)c2ccc(C(=O)NCC(=O)O)cc2)CC1 | > 1000 | – |
| N#CSc1cc(SC#N)c(N)nc1N | – | EC50 [7]: 8.6 µM; EC50 [8]: 6.9 µM; EC50 [9]: 3.9 µM; EC50 [10]: 7.2 µM; EC50 [11]: 4.9 µM |

Second part, led by results:

| Kd [1] [µM] | SMILES | further results |
| --- | --- | --- |
| 290 | O=C(O)CNC(=O)c1ccc(S(=O)(=O)N2CCc3ccccc3C2)cc1 | – |
| 410 | CN1CCC2(CC1)CCN(S(=O)(=O)c1ccc(C(=O)NCC(=O)O)cc1)CC2 | – |
| > 760 | CN(C)C1CCN(S(=O)(=O)c2ccc(C(=O)NCC(=O)O)cc2)CC1 | – |
| > 480 | O=C(O)CNC(=O)c1ccc(S(=O)(=O)N2CCN(c3ccccc3)CC2)cc1 | – |
| 440 | O=C(O)CNC(=O)c1ccc(S(=O)(=O)N2CCC3(CC2)OCc2ccccc23)cc1 | – |
| > 640 | O=C(O)CNC(=O)c1ccc(S(=O)(=O)N2CCCC(c3ccccc3)CC2)cc1 (stereo not drawn) | – |
| > 480 | O=C(O)CNC(=O)c1ccc(S(=O)(=O)N2Cc3ccccc3C2)cc1 | – |
| > 1000 | Cn1cc(S(=O)(=O)N2CCC(c3ccccc3)CC2)cc1C(=O)NCC(=O)O | – |

Reference: ChEMBL document CHEMBL5226343, “Structure-Activity Relationship of USP5 Inhibitors” (J Med Chem, 2021)
